Measured values reported in US20120029187A1, “HALOALKYLSULFONANILIDE DERIVATIVE” (Nissan Chemical Industries, Ltd., priority 2009, published 2012).

Key:
Type in all cases: in vivo
redroot pigweed [1] = assay: Test Example 4: herbicidal effect in foliage treatment; details: dose 3.2 g/a
Procedure, shortened: (§1)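 Weeds and crops sown in sterilized diluvial soil under ~1.5 cm cover and grown in greenhouse at 25 to 30° C. At 14 days, water-diluted emulsifiable concentrate sprayed onto foliage at set doses (g/a); herbicidal effect scored on a rating scale three weeks after application.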

giant foxtail [2] = assay: as above; details: dose 3.2 g/a
Procedure, shortened: as §1

common lambsquater [3] = assay: as above; details: dose 3.2 g/a
Procedure, shortened: as §1

water foxtail [4] = assay: as above; details: dose 3.2 g/a
Procedure, shortened: as §1

Italian ryegrass [5] = assay: as above; details: dose 3.2 g/a
Procedure, shortened: as §1

common chickweed [6] = assay: as above; details: dose 3.2 g/a
Procedure, shortened: as §1

large crabgrass [7] = assay: as above; details: dose 3.2 g/a
Procedure, shortened: as §1

barnyardgrass [8] = assay: as above; details: dose 3.2 g/a
Procedure, shortened: as §1

velvetleaf [9] = assay: as above; details: dose 3.2 g/a
Procedure, shortened: as §1

beadstraw [10] = assay: as above; details: dose 3.2 g/a
Procedure, shortened: as §1

common ragweed [11] = assay: as above; details: dose 3.2 g/a
Procedure, shortened: as §1

posumbu knotweed [12] = assay: as above; details: dose 3.2 g/a
Procedure, shortened: as §1

transplanted rice = assay: Test Example 1: preemergence treatment under submerged conditions, effect on crop; details: dose 2.52 g/a
Procedure, shortened: (§2)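 Flooded-paddy preemergence assay; EC diluted with water, surface-applied at weed seeding; doses g/a; rice transplanted at 2.5 leaves; 0–5 mortality score after 3 weeks.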

bulrush [13] = assay: Test Example 1: herbicidal effects in preemergence treatment under submerged conditions; details: dose 2.52 g/a
Procedure, shortened: as §2

barnyardgrass [14] = assay: as above; details: dose 2.52 g/a
Procedure, shortened: as §2

ducksalad [15] = assay: as above; details: dose 2.52 g/a
Procedure, shortened: as §2

redroot pigweed [16] = assay: Test Example 3: herbicidal effects in soil treatment; details: dose 3.2 g/a
Procedure, shortened: (§3)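 Seeds were sown in sterilized diluvial soil and covered with about 1.5 cm of soil. Compounds, formulated as emulsifiable concentrates and diluted with water, were sprayed evenly over the soil surface at set doses in g/a. Herbicidal effect was scored on a rating scale three weeks later.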

giant foxtail [17] = assay: as above; details: dose 3.2 g/a
Procedure, shortened: as §3

common lambsquater [18] = assay: as above; details: dose 3.2 g/a
Procedure, shortened: as §3

water foxtail [19] = assay: as above; details: dose 3.2 g/a
Procedure, shortened: as §3

Italian ryegrass [20] = assay: as above; details: dose 3.2 g/a
Procedure, shortened: as §3

common chickweed [21] = assay: as above; details: dose 3.2 g/a
Procedure, shortened: as §3

large crabgrass [22] = assay: as above; details: dose 3.2 g/a
Procedure, shortened: as §3

barnyardgrass [23] = assay: as above; details: dose 3.2 g/a
Procedure, shortened: as §3

velvetleaf [24] = assay: as above; details: dose 3.2 g/a
Procedure, shortened: as §3

beadstraw [25] = assay: as above; details: dose 3.2 g/a
Procedure, shortened: as §3

common ragweed [26] = assay: as above; details: dose 3.2 g/a
Procedure, shortened: as §3

posumbu knotweed [27] = assay: as above; details: dose 3.2 g/a
Procedure, shortened: as §3

bulrush [28] = assay: Test Example 2: herbicidal effects during the vegetation period under submerged conditions; details: treatment during the vegetation period under submerged conditions; dose 2.52 g/a
Procedure, shortened: (§4)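 Barnyardgrass, bulrush and ducksalad were co-sown in alluvial soil flooded to 4 cm and grown in a greenhouse at 25 to 30° C. At the 1- or 2-leaf stage, water-diluted emulsifiable concentrates went onto the water surface at set doses (g/a). Herbicidal effect was scored three weeks later on a graded scale.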

barnyardgrass [29] = assay: as above; details: treatment during the vegetation period under submerged conditions; dose 2.52 g/a
Procedure, shortened: as §4

ducksalad [30] = assay: as above; details: treatment during the vegetation period under submerged conditions; dose 2.52 g/a
Procedure, shortened: as §4

[31] = three weeks after the application

CCOC(=O)N(c1ccccc1CN1OCC(CC)OC1=O)S(=O)(=O)C(F)(F)F (centres unmarked) [III-6]
K: redroot pigweed, herbicidal effect (redroot pigweed [1]; [31]): 4 (mortality of at least 70% and less than 90%) | E: giant foxtail, herbicidal effect (giant foxtail [2]; [31]): 5 (mortality of 90% or above (nearly complete death)) | L: common lambsquater, herbicidal effect (common lambsquater [3]; [31]): 3 (mortality of at least 40% and less than 70%) | G: water foxtail, herbicidal effect (water foxtail [4]; [31]): 5 (mortality of 90% or above (nearly complete death)) | H: Italian ryegrass, herbicidal effect (Italian ryegrass [5]; [31]): 2 (mortality of at least 20% and less than 40%) | N: common chickweed, herbicidal effect (common chickweed [6]; [31]): 4 (mortality of at least 70% and less than 90%) | D: large crabgrass, herbicidal effect (large crabgrass [7]; [31]): 3 (mortality of at least 40% and less than 70%) | A: barnyardgrass, herbicidal effect (barnyardgrass [8]; [31]): 5 (mortality of 90% or above (nearly complete death)) | I: velvetleaf, herbicidal effect (velvetleaf [9]; [31]): 3 (mortality of at least 40% and less than 70%) | O: beadstraw, herbicidal effect (beadstraw [10]; [31]): 3 (mortality of at least 40% and less than 70%) | J: common ragweed, herbicidal effect (common ragweed [11]; [31]): 4 (mortality of at least 70% and less than 90%) | M: posumbu knotweed, herbicidal effect (posumbu knotweed [12]; [31]): 5 (mortality of 90% or above (nearly complete death)) | a: transplanted rice, effect on crop (evaluation scale 0-5) (transplanted rice): 0 (mortality of less than 5% (almost ineffective)) | B: bulrush, herbicidal effect (evaluation scale 0-5) (bulrush [13]): 5 (mortality of 90% or above (nearly complete death)) | A: barnyardgrass, herbicidal effect (evaluation scale 0-5) (barnyardgrass [14]): 5 (mortality of 90% or above (nearly complete death)) | C: ducksalad, herbicidal effect (evaluation scale 0-5) (ducksalad [15]): 5 (mortality of 90% or above (nearly complete death)) | herbicidal effect, K: redroot pigweed (redroot pigweed [16]): 3 (mortality of at least 40% and less than 70%) | herbicidal effect, E: giant foxtail (giant foxtail [17]): 4 (mortality of at least 70% and less than 90%) | herbicidal effect, L: common lambsquater (common lambsquater [18]): 4 (mortality of at least 70% and less than 90%) | herbicidal effect, G: water foxtail (water foxtail [19]): 5 (mortality of 90% or above (nearly complete death)) | herbicidal effect, H: Italian ryegrass (Italian ryegrass [20]): 5 (mortality of 90% or above (nearly complete death)) | herbicidal effect, N: common chickweed (common chickweed [21]): 5 (mortality of 90% or above (nearly complete death)) | herbicidal effect, D: large crabgrass (large crabgrass [22]): 5 (mortality of 90% or above (nearly complete death)) | herbicidal effect, A: barnyardgrass (barnyardgrass [23]): 5 (mortality of 90% or above (nearly complete death)) | herbicidal effect, I: velvetleaf (velvetleaf [24]): 5 (mortality of 90% or above (nearly complete death)) | herbicidal effect, O: beadstraw (beadstraw [25]): 4 (mortality of at least 70% and less than 90%) | herbicidal effect, J: common ragweed (common ragweed [26]): 4 (mortality of at least 70% and less than 90%) | herbicidal effect, M: posumbu knotweed (posumbu knotweed [27]): 5 (mortality of 90% or above (nearly complete death)) | B: bulrush, herbicidal effect (evaluation scale 0-5) (bulrush [28]): 5 (mortality of 90% or above (nearly complete death)) | A: barnyardgrass, herbicidal effect (evaluation scale 0-5) (barnyardgrass [29]): 5 (mortality of 90% or above (nearly complete death)) | C: ducksalad, herbicidal effect (evaluation scale 0-5) (ducksalad [30]): 5 (mortality of 90% or above (nearly complete death))

CCOC(=O)N(c1ccccc1CN1COC2(CCC2)CC1=O)S(=O)(=O)C(F)(F)F [II-63]
K: redroot pigweed, herbicidal effect (redroot pigweed [1]; three weeks after application): 2 (mortality of at least 20% and less than 40%) | E: giant foxtail, herbicidal effect (giant foxtail [2]; three weeks after application): 4 (mortality of at least 70% and less than 90%) | L: common lambsquater, herbicidal effect (common lambsquater [3]; three weeks after application): 3 (mortality of at least 40% and less than 70%) | G: water foxtail, herbicidal effect (water foxtail [4]; three weeks after application): 5 (mortality of 90% or above (nearly complete death)) | H: Italian ryegrass, herbicidal effect (Italian ryegrass [5]; three weeks after application): 4 (mortality of at least 70% and less than 90%) | N: common chickweed, herbicidal effect (common chickweed [6]; three weeks after application): 4 (mortality of at least 70% and less than 90%) | D: large crabgrass, herbicidal effect (large crabgrass [7]; three weeks after application): 4 (mortality of at least 70% and less than 90%) | A: barnyardgrass, herbicidal effect (barnyardgrass [8]; three weeks after application): 5 (mortality of 90% or above (nearly complete death)) | I: velvetleaf, herbicidal effect (velvetleaf [9]; three weeks after application): 5 (mortality of 90% or above (nearly complete death)) | O: beadstraw, herbicidal effect (beadstraw [10]; three weeks after application): 3 (mortality of at least 40% and less than 70%) | J: common ragweed, herbicidal effect (common ragweed [11]; three weeks after application): 4 (mortality of at least 70% and less than 90%) | M: posumbu knotweed, herbicidal effect (posumbu knotweed [12]; three weeks after application): 4 (mortality of at least 70% and less than 90%) | a: transplanted rice, effect on crop (evaluation scale 0-5) (transplanted rice): 1 (mortality of at least 5% and less than 20%) | B: bulrush, herbicidal effect (evaluation scale 0-5) (bulrush [13]): 5 (mortality of 90% or above (nearly complete death)) | A: barnyardgrass, herbicidal effect (evaluation scale 0-5) (barnyardgrass [14]): 5 (mortality of 90% or above (nearly complete death)) | C: ducksalad, herbicidal effect (evaluation scale 0-5) (ducksalad [15]): 5 (mortality of 90% or above (nearly complete death)) | K: redroot pigweed, herbicidal effect (evaluation scale 0-5) (redroot pigweed [16]): 4 (mortality of at least 70% and less than 90%) | E: giant foxtail, herbicidal effect (evaluation scale 0-5) (giant foxtail [17]): 5 (mortality of 90% or above (nearly complete death)) | L: common lambsquater, herbicidal effect (evaluation scale 0-5) (common lambsquater [18]): 3 (mortality of at least 40% and less than 70%) | G: water foxtail, herbicidal effect (evaluation scale 0-5) (water foxtail [19]): 5 (mortality of 90% or above (nearly complete death)) | H: Italian ryegrass, herbicidal effect (evaluation scale 0-5) (Italian ryegrass [20]): 4 (mortality of at least 70% and less than 90%) | N: common chickweed, herbicidal effect (evaluation scale 0-5) (common chickweed [21]): 5 (mortality of 90% or above (nearly complete death)) | D: large crabgrass, herbicidal effect (evaluation scale 0-5) (large crabgrass [22]): 5 (mortality of 90% or above (nearly complete death)) | A: barnyardgrass, herbicidal effect (evaluation scale 0-5) (barnyardgrass [23]): 5 (mortality of 90% or above (nearly complete death)) | I: velvetleaf, herbicidal effect (evaluation scale 0-5) (velvetleaf [24]): 5 (mortality of 90% or above (nearly complete death)) | O: beadstraw, herbicidal effect (evaluation scale 0-5) (beadstraw [25]): 4 (mortality of at least 70% and less than 90%) | J: common ragweed, herbicidal effect (evaluation scale 0-5) (common ragweed [26]): 4 (mortality of at least 70% and less than 90%) | M: posumbu knotweed, herbicidal effect (evaluation scale 0-5) (posumbu knotweed [27]): 4 (mortality of at least 70% and less than 90%) | B: bulrush, herbicidal effect (evaluation scale 0-5) (bulrush [28]): 5 (mortality of 90% or above (nearly complete death)) | A: barnyardgrass, herbicidal effect (evaluation scale 0-5) (barnyardgrass [29]): 5 (mortality of 90% or above (nearly complete death)) | C: ducksalad, herbicidal effect (evaluation scale 0-5) (ducksalad [30]): 5 (mortality of 90% or above (nearly complete death))
